Reference: patent US20210290648A1, “Potentiation of B-Lactam Antibiotics and B-Lactam/B-Lactamase Inhibitor Combinations Against Multidrug and Extensively Drug-Resistant Pseudomonas Aeruginosa Using Non-Ribosomal Tobramycin-Cyclam Conjugates” (University of Manitoba, priority 2018, published 2021)
Read-outs that look alike come from different tables or passages of the source.

What was measured:
PA108590 = test: MIC / triple combination susceptibility; assay type: cell-based, Pseudomonas aeruginosa; details: Pseudomonas aeruginosa; P. aeruginosa 108590; FIG. 8 legend
From the text: The diazabicyclooctane β-lactamase inhibitor, avibactam, is able to inhibit a wide range of serine β-lactamases (class A, C, and D) but not metallo-β-lactamases (class B) (50, 51).^50,51 However, the high concentration of avibactam required to neutralize the effects of β-lactamase enzymes in these phenotypes is indicative of concomitant permeability barriers in the isolates, such as reduced porin uptake. […] The results of this study are shown in (FIG. 6). All isolates were resistant to all three β-lactam antibiotics used for the study. […] As expected, the study with meropenem was slightly different from others.
Antimicrobial Susceptibility Assay. The in vitro antimicrobial activity of all compounds/antibiotics against a panel of bacteria was evaluated by microbroth dilution method in accordance with the Clinical and Laboratory Standards Institute (CLSI) guidelines. […]
Checkerboard Assay. […] After incubation, the plates were read on EMax® Plus microplate reader (Molecular Devices, Sunnyvale, Calif., USA) at 590 nm. MIC was recorded as wells with the lowest concentration of drugs with no bacterial growth. The fractional inhibitory concentration (FIC) for each antibiotic was calculated by dividing the MIC of the antibiotic in the presence of adjuvant by the MIC of the antibiotic alone. […]

WT P. aeruginosa PAO1 = test: Checkerboard combination study / MIC; assay type: cell-based, Pseudomonas aeruginosa; details: for MIC: Pseudomonas aeruginosa; for FICI in the presence of ≤10 μM of 1: antibiotic + compound 1; for FICI in the presence of ≤10 μM of 1 / MIC of Antibiotics in the presence of ≤10 μM of 1 / FICI in the presence of ≤10 μM of 2 / MIC of Antibiotics in the presence of ≤10 μM of 2 / FICI in the presence of ≤10 μM of 3 / MIC of Antibiotics in the presence of ≤10 μM of 3: WT PAO1; for MIC of Antibiotics in the presence of ≤10 μM of 1: antibiotic + compound 1 ≤10 μM; for FICI in the presence of ≤10 μM of 2: antibiotic + compound 2; for MIC of Antibiotics in the presence of ≤10 μM of 2: antibiotic + compound 2 ≤10 μM; for FICI in the presence of ≤10 μM of 3: antibiotic + compound 3; for MIC of Antibiotics in the presence of ≤10 μM of 3: antibiotic + compound 3 ≤10 μM; for MIC of antibiotic alone in PAO1: PAO1 wild-type (Table 4)
MDR PA108590 = test: Time-kill assay, triple combination; assay type: cell-based, Pseudomonas aeruginosa; details: 16 μg/mL, i.e. half MIC; MDR PA108590
[1] = tested on: MDR/XDR P. aeruginosa clinical isolates; test: MIC and checkerboard, panel of clinical isolates; assay type: cell-based, Pseudomonas aeruginosa; details: antibiotic + compound 2 (8.7 μM); resistant P. aeruginosa isolates
PA 114228 = test: Checkerboard combination study / MIC; assay type: cell-based, Pseudomonas aeruginosa; details: for MICCombination (antibiotic): MIC of antibiotic combined with compound 2; for FICI: antibiotic + compound 2; for MICAntibiotic: antibiotic alone
PA 259 = test: Checkerboard combination study / MIC; assay type: cell-based, Pseudomonas aeruginosa; details: for MICCombination (antibiotic): MIC of antibiotic combined with compound 2; for FICI: antibiotic + compound 2; for MICAntibiotic: antibiotic alone
PA 101885 = test: Checkerboard combination study / MIC; assay type: cell-based, Pseudomonas aeruginosa; details: for MICCombination (antibiotic): MIC of antibiotic combined with compound 2; for FICI: antibiotic + compound 2; for MICAntibiotic: antibiotic alone
[2] = tested on: MDR PA108590-challenged larvae; test: Galleria mellonella infection model, efficacy; assay type: in vivo; details: ceftazidime 1.56 mg/kg single dose
From the text: In vivo larvae-infection model.

MDR PA101885 = test: Time-kill assay; assay type: cell-based, Pseudomonas aeruginosa
Description: (§1) Time-kill curves typically reveal the kinetics of bacterial growth and death, with respect to time, at different antimicrobial concentrations. An antibiotic could either be bactericidal or bacteriostatic under specific growth conditions. Bactericidal activity is defined as a ≥3-log reduction in the total CFU/mL from the original inoculum over 24 hours while bacteriostatic activity is defined as maintenance of <3-log reduction in the total CFU/mL from the original inoculum (44). […] Growth curves were initially performed to ensure that strains will reach a stable early- to mid-log phase after 4 h of pre-incubation in antimicrobial-free LB medium.
(§2) Time-kill assay. Time-kill curve analyses were performed by culturing P. aeruginosa in LB medium, in the presence of antibiotics alone and in combination with test adjuvants. MICs of antibiotics and adjuvants were determined before the experiment following CLSI microbroth dilution guidelines. Growth curves were initially performed to confirm that all strains will reach a stable early- to mid-log phase after 4 h of pre-incubation in antimicrobial-free LB medium. A 0.5 McFarland inoculum of each strain was prepared in sterile 0.85% saline solution from an overnight grown culture. For each strain, 30 μl of the prepared inoculum was diluted to 3 ml of LB broth (containing different combinations of antimicrobial agents and adjuvants) and incubated at 37° C. shaking at 250 rpm. At specific time intervals (0, 1, 3, 6, 9, and 24 h), 100 μl was taken from each sample, serially diluted in sterile PBS, plated on LB agar plates, and incubated at 37° C. in a humid 5% CO2-enriched atmosphere. Bacteria colonies were counted after 20 h of incubation.

[3] = tested on: wild type P. aeruginosa PAO1; test: Time-kill assay; assay type: cell-based, Pseudomonas aeruginosa; details: WT PAO1
Description: as §1, §2

Row | SMILES | MIC of antibiotic + Compound 2 in PAO1 (WT P. aeruginosa PAO1; + compound 2 ≤8.7 μM, PAO1) | FICI in the presence of ≤10 μM of 1 (WT P. aeruginosa PAO1) | MIC of Antibiotics in the presence of ≤10 μM of 1 (WT P. aeruginosa PAO1) | FICI in the presence of ≤10 μM of 2 (WT P. aeruginosa PAO1) | MIC of Antibiotics in the presence of ≤10 μM of 2 (WT P. aeruginosa PAO1) | FICI in the presence of ≤10 μM of 3 (WT P. aeruginosa PAO1) | MIC of Antibiotics in the presence of ≤10 μM of 3 (WT P. aeruginosa PAO1) | MIC of antibiotic alone in PAO1 (WT P. aeruginosa PAO1; antibiotic alone) | resistant isolates reaching CLSI clinical breakpoint [1] | MICCombination (antibiotic) (PA 114228) | FICI (PA 114228) | MICAntibiotic (PA 114228) | MICCombination (antibiotic) (PA 259) | FICI (PA 259) | MICAntibiotic (PA 259) | MICCombination (antibiotic) (PA 101885) | FICI (PA 101885) | MICAntibiotic (PA 101885) | also measured
1 | CC(C)(O/N=C(\C(=O)N[C@@H]1C(=O)N2C(C(=O)[O-])=C(C[n+]3ccccc3)CS[C@H]12)c1csc(N)n1)C(=O)O [Ceftazidime] | 0.5 µg/mL | 0.25 | 0.5 µg/mL | 0.13 | 0.25 µg/mL | 0.25 | 0.5 µg/mL | 4 µg/mL | three out of six | 1 µg/mL | <0.19 | 8 µg/mL | 64 µg/mL | <0.19 | 512 µg/mL | 1 µg/mL | <0.16 | 8 µg/mL | MIC (PA108590): 0.032 µg/mL; MIC (WT P. aeruginosa PAO1; PAO1, antibiotic alone, WT PAO1 (Table 2), read-out: MIC alone): 2 µg/mL; time-kill effect, alone (MDR PA108590): bactericidal effects after 3 h; survival of larvae ([2]; after 24 h): 50%; survival of larvae ([2]; after 36 h): 10%
2 | C[C@@H](O)[C@H]1C(=O)N2C(C(=O)O)=C(S[C@@H]3CN[C@H](C(=O)N(C)C)C3)[C@H](C)[C@H]12 [Meropenem] | 0.25 µg/mL | 0.25 (0.25) | 0.25 (0.25) μg/ml | 0.26 | 0.25 µg/mL | 0.50 | 0.5 µg/mL | 1 µg/mL | eight out of nine | 2 µg/mL | <0.28 | 8 µg/mL | 256 µg/mL | <0.31 | 1024 µg/mL | 0.5 µg/mL | <0.16 | 4 µg/mL | fold change of MIC + Compound 2 in PAO1 (WT P. aeruginosa PAO1; + compound 2 ≤8.7 μM, PAO1): 4; MIC (WT P. aeruginosa PAO1; PAO1, 18 h, antibiotic alone, WT PAO1 (Table 2), read-out: MIC alone): 1 µg/mL; MIC (WT P. aeruginosa PAO1; PAO1, time-kill study text and FIG. 7 legend, read-out: MIC against WT PAO1): 1 µg/mL; FICAntibiotic (PA 114228; with compound 2): 0.250; interaction with compound 2 in time-kill (MDR PA101885; 24 h): synergistic; time-kill effect, antibiotic + compound 2 (MDR PA101885; CLSI breakpoint concentration + 4.4 μM or 8.7 μM compound 2, after about 6 h): strongly bactericidal; time-kill effect, antibiotic alone (MDR PA101885; at CLSI breakpoint concentration (aztreonam 8 μg/mL, meropenem 2 μg/mL)): bacteriostatic effect; interaction with compound 2 in time-kill ([3]; 24 h): indifferent; time-kill effect, antibiotic alone ([3]; at MIC (aztreonam 4 μg/mL, meropenem 1 μg/mL)): time-dependent bactericidal effect; FICAntibiotic (PA 259; with compound 2): 0.250; FICAntibiotic (PA 101885; with compound 2): 0.125
